Assay results taken from US20090325959A1 (priority 2008, published 2009).
pKi: −log10 of the molar value. Read-outs that look alike come from different tables or passages of the source.

How the values were obtained:
ROCK2 = molecular target: T1, ROCK2 (Homo sapiens, UniProt O75116); assay: Rho kinase inhibition assay (IMAP fluorescence polarization), ROCK2; format: biochemical;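 note: kinase reaction started with 10 µM ATP and run 60 min at room temperature, then phosphorylated substrate captured on IMAP beads for 30 min and fluorescence polarization read in mP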
T1 construct: purchased Upstate/Chemicon 14-451
Method: (§1) Following the pre-incubation, 10 μM ATP was added to initiate the reaction. After 60 minutes at room temperature, Molecular Devices IMAP™ binding solution was added to bind phosphorylated substrate. After 30 minutes of incubation in the presence of the IMAP™ beads, the fluorescence polarization was read and the ratio was reported as mP. IC50 values for compounds and EC50 values for ATP were calculated using the Prism software from Graphpad.

ROCK1 = molecular target: T2, ROCK1 (Homo sapiens, UniProt Q13464); assay: Rho kinase inhibition assay (IMAP fluorescence polarization), ROCK1; format: biochemical;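 note: kinase reaction run 60 min at room temperature, then phosphorylated substrate captured on IMAP beads for 30 min, with fluorescence polarization read in mP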
T2 construct: purchased Upstate/Chemicon 14-601
Method: as §1

[1] = 10 μM ATP, read-out: ROCK2 Ki, Avg

T2 sequence (Q13464 17-535 limits assumed): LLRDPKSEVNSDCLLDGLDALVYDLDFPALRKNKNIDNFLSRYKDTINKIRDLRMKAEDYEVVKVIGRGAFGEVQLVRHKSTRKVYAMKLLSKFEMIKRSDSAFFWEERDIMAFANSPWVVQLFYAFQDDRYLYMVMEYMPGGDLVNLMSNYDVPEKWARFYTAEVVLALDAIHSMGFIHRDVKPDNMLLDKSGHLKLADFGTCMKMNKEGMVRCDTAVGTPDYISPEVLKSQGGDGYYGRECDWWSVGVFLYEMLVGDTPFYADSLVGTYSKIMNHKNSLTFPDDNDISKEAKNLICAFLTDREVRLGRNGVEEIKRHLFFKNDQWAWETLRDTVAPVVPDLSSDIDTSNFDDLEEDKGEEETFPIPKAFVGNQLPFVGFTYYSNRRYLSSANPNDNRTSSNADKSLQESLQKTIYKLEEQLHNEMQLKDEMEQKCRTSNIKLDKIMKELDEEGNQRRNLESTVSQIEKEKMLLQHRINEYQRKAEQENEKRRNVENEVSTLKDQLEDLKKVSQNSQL
T1 sequence (O75116 11-552 limits assumed): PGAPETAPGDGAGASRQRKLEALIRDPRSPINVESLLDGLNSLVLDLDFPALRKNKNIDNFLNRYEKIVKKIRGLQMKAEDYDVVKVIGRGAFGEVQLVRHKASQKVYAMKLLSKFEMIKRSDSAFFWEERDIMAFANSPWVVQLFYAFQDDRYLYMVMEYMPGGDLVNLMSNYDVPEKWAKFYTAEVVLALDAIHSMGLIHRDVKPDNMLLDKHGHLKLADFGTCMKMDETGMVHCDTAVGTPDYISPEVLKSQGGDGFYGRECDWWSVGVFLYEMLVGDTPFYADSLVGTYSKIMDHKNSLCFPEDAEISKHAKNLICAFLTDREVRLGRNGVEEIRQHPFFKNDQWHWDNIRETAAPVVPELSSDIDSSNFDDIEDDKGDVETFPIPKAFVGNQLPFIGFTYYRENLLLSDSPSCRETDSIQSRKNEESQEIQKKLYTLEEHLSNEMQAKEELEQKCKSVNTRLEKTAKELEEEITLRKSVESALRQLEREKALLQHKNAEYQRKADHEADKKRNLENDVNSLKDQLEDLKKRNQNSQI

Question: Which results are given for `c1cn(-c2ccc(CN3CCC[C@H](Nc4ccc5[nH]ncc5c4)C3)cc2)cn1` [Compound 1.255]?
Answer: pKi (ROCK2; [1]): 6.45; pKi (ROCK1; Avg, 10 μM ATP): 5.45

Question: How did the pKi (ROCK2; [1]) turn out when `OCCOc1cc(CN2CC[C@@H](Nc3cccc4cnccc34)C2)ccc1F` [Compound 2.068, (R)-2-(2-fluoro-5-((3-(isoquinolin-5-ylamino)pyrrolidin-1-yl)methyl)phenoxy)ethanol] was run?
Answer: Its pKi is 8.24.

Question: What about the pKi (ROCK2; average Ki, read-out: ROCK2 Ki) of the same molecule?
Answer: Its pKi is 8.24.

Question: And the pKi (ROCK1; Avg, 10 μM ATP)?
Answer: The pKi was 8.10.

Question: What about the pKi (ROCK1; average Ki) of the same molecule?
Answer: Its pKi is 8.10.

Question: `Clc1ccc(CN2CC[C@@H](Nc3ccc4[nH]ncc4c3)C2)cc1Cl` [Compound 1.254, (R)-N-(1-(3,4-dichlorobenzyl)pyrrolidin-3-yl)-1H-indazol-5-amine] was tested. Which pKi (ROCK2; [1]) did it give?
Answer: Its pKi is 7.41.

Question: What about the pKi (ROCK1; Avg, 10 μM ATP) of the same molecule?
Answer: The pKi was 6.94.

Question: How did the pKi (ROCK2; [1]) turn out when `Cn1ccnc1CN1CCC[C@H](Nc2ccc3[nH]ncc3c2)C1` [Compound 1.257, (S)-N-(1-((1-methyl-1H-imidazol-2-yl)methyl)piperidin-3-yl)-1H-indazol-5-amine] was run?
Answer: The pKi was 6.77.

Question: What about the pKi (ROCK1; Avg, 10 μM ATP) of the same molecule?
Answer: Its pKi is 5.89.

Question: How did the pKi (ROCK2; [1]) turn out when `CN(c1cccc(CN2CCC[C@@H](Nc3ccc4[nH]ncc4c3)C2)c1)S(C)(=O)=O` [Compound 1.207, (R)-N-(3-((3-(1H-indazol-5-ylamino)piperidin-1-yl)methyl)phenyl)-N-methylmethanesulfonamide] was run?
Answer: The pKi was 7.36.

Question: What about the pKi (ROCK1; Avg, 10 μM ATP) of the same molecule?
Answer: Its pKi is 6.29.

Question: `OCCOc1cccc(CN2CCC[C@H](Nc3ccc4[nH]ncc4c3)C2)c1` [Compound 1.090, (S)-2-(3-((3-(1H-indazol-5-ylamino)piperidin-1-yl)methyl)phenoxy)ethanol] was tested. Which pKi (ROCK2; [1]) did it give?
Answer: Its pKi is 7.60.

Question: What about the pKi (ROCK1; Avg, 10 μM ATP) of the same molecule?
Answer: The pKi was 6.55.

Question: `CS(=O)(=O)N1CCCc2cc(CN3CCC[C@H](Nc4ccc5[nH]ncc5c4)C3)ccc21` [Compound 1.272, (S)-N-(1-((1-(methylsulfonyl)-1,2,3,4-tetrahydroquinolin-6-yl)methyl)piperidin-3-yl)-1H-indazol-5-amine] was tested. Which pKi (ROCK2; [1]) did it give?
Answer: The pKi was 6.71.

Question: What about the pKi (ROCK1; Avg, 10 μM ATP) of the same molecule?
Answer: The pKi was 5.74.

Question: `Cc1c(CN2CC[C@@H](Nc3cccc4cnccc34)C2)cccc1NS(C)(=O)=O` [Compound 2.078, (R)-N-(3-((3-(isoquinolin-5-ylamino)pyrrolidin-1-yl)methyl)-2-methylphenyl)methanesulfonamide] was tested. Which pKi (ROCK2; [1]) did it give?
Answer: Its pKi is 8.59.

Question: And the pKi (ROCK2; average Ki, read-out: ROCK2 Ki)?
Answer: Its pKi is 8.59.

Question: And the pKi (ROCK1; Avg, 10 μM ATP)?
Answer: Its pKi is 7.74.

Question: And the pKi (ROCK1; average Ki)?
Answer: The pKi was 7.74.

Question: How did the pKi (ROCK2; [1]) turn out when `OCCn1cc(CN2CC[C@@H](Nc3cccc4cnccc34)C2)c2ccccc21` [Compound 2.072, (R)-2-(3-((3-(isoquinolin-5-ylamino)pyrrolidin-1-yl)methyl)-1H-indol-1-yl)ethanol] was run?
Answer: The pKi was 8.36.

Question: And the pKi (ROCK2; average Ki, read-out: ROCK2 Ki)?
Answer: The pKi was 8.36.

Question: What about the pKi (ROCK1; Avg, 10 μM ATP) of the same molecule?
Answer: The pKi was 8.12.

Question: And the pKi (ROCK1; average Ki)?
Answer: Its pKi is 8.12.

Question: `COc1c(CN2CC[C@@H](Nc3cccc4cnccc34)C2)cccc1NS(C)(=O)=O` [Compound 2.096, (R)-N-(3-((3-(isoquinolin-5-ylamino)pyrrolidin-1-yl)methyl)-2-methoxyphenyl)methanesuifonamide] was tested. Which pKi (ROCK2; [1]) did it give?
Answer: The pKi was 8.02.

Question: And the pKi (ROCK2; average Ki, read-out: ROCK2 Ki)?
Answer: The pKi was 8.02.

Question: And the pKi (ROCK1; Avg, 10 μM ATP)?
Answer: The pKi was 7.15.

Question: What about the pKi (ROCK1; average Ki) of the same molecule?
Answer: Its pKi is 7.15.

Question: How did the pKi (ROCK2; [1]) turn out when `O=c1[nH]ccc2c(N[C@@H]3CCN(Cc4cccc(OCCO)c4)C3)cccc12` [Compound 2.092, (R)-5-(1-(3-(2-hydroxyethoxy)benzyl)pyrrolidin-3-ylamino)isoquinolin-1(2H)-one] was run?
Answer: The pKi was 6.34.

Question: What about the pKi (ROCK1; Avg, 10 μM ATP) of the same molecule?
Answer: The pKi was 5.95.

Question: How did the pKi (ROCK2; [1]) turn out when `CS(=O)(=O)c1cccc(CN2CCC[C@H](Nc3ccc4[nH]ncc4c3)C2)c1` [Compound 1.182, (S)-N-(1-(3-(methylsulfonyl)benzyl)piperidin-3-yl)-1H-indazol-5-amine] was run?
Answer: The pKi was 7.51.

Question: And the pKi (ROCK1; Avg, 10 μM ATP)?
Answer: Its pKi is 6.39.

Question: What does the source list for `Cc1ccc(CN2CC[C@@H](Nc3ccc4[nH]ncc4c3)C2)cc1OCCO` [Compound 1.276]?
Answer: pKi (ROCK2; [1]): 7.91; pKi (ROCK1; Avg, 10 μM ATP): 7.19

Question: With `OCCn1ccc2cc(CN3CCC[C@@H](Nc4ccc5[nH]ncc5c4)C3)ccc21` [Compound 1.268, (R)-2-(5-((3-(1H-indazol-5-ylamino)piperidin-1-yl)methyl)-1H-indol-1-yl)ethanol] as the molecule, how does the pKi (ROCK2; [1]) read?
Answer: Its pKi is 7.39.

Question: What about the pKi (ROCK1; Avg, 10 μM ATP) of the same molecule?
Answer: The pKi was 6.39.

Question: What does the source list for `c1ccc(CN2CCC[C@H](Nc3cccc4cnccc34)C2)cc1` [Compound 2.050, (S)-N-(1-benzylpiperidin-3-yl)isoquinolin-5-amine]?
Answer: pKi (ROCK2; [1]): 6.60; pKi (ROCK1; Avg, 10 μM ATP): 6.43

Question: Which results are given for `Clc1ccc(CN2CCC[C@@H](Nc3ccc4[nH]ncc4c3)C2)cc1Cl` [Compound 1.144, (R)-N-(1-(3,4-dichlorobenzyl)piperidin-3-yl)-1H-indazol-5-amine]?
Answer: pKi (ROCK2; [1]): 7.71; pKi (ROCK1; Avg, 10 μM ATP): 7.01

Question: With `OCCCOc1cccc(CN2CCC[C@H](Nc3ccc4[nH]ncc4c3)C2)c1` [Compound 1.230, (S)-3-(3-((3-(1H-indazol-5-ylamino)piperidin-1-yl)methyl)phenoxy)propan-1-ol] as the molecule, how does the pKi (ROCK2; [1]) read?
Answer: The pKi was 7.45.

Question: What about the pKi (ROCK1; Avg, 10 μM ATP) of the same molecule?
Answer: The pKi was 6.46.

Question: `Cc1ccc(CN2CCC[C@H](Nc3ccc4[nH]ncc4c3)C2)cc1OCC(=O)O` [Compound 1.240] was tested. Which pKi (ROCK2; [1]) did it give?
Answer: The pKi was 7.22.

Question: And the pKi (ROCK1; Avg, 10 μM ATP)?
Answer: Its pKi is 6.20.

Question: With `Cn1c(CN2CC[C@@H](Nc3cccc4cnccc34)C2)nc2ccccc21` [Compound 2.075, (R)-N-(1-((1-methyl-1H-benzo[d]imidazol-2-yl)methyl)pyrrolidin-3-yl)isoquinolin-5-amine] as the molecule, how does the pKi (ROCK2; [1]) read?
Answer: Its pKi is 7.66.

Question: And the pKi (ROCK1; Avg, 10 μM ATP)?
Answer: The pKi was 6.91.

Question: `Cc1ccc(CN2CC[C@@H](Nc3cccc4c(=O)[nH]ccc34)C2)cc1OCCO` [Compound 2.093, (R)-5-(1-(3-(2-hydroxyethoxy)-4-methylbenzyl)pyrrolidin-3-ylamino)isoquinolin-1(2H)-one] was tested. Which pKi (ROCK2; [1]) did it give?
Answer: The pKi was 6.89.

Question: And the pKi (ROCK1; Avg, 10 μM ATP)?
Answer: The pKi was 6.24.

Question: How did the pKi (ROCK2; [1]) turn out when `OCc1ccc(CN2CCC[C@@H](Nc3ccc4[nH]ncc4c3)C2)cc1` [Compound 1.232, (R)-(4-((3-(1H-indazol-5-ylamino)piperidin-1-yl)methyl)phenyl)methanol] was run?
Answer: Its pKi is 7.68.

Question: What about the pKi (ROCK1; Avg, 10 μM ATP) of the same molecule?
Answer: Its pKi is 6.86.

Question: With `O=C(O)COc1cccc(CN2CCC[C@H](Nc3ccc4[nH]ncc4c3)C2)c1` [Compound 1.196, (S)-2-(3-((3-(1H-indazol-5-ylamino)piperidin-1-yl)methyl)phenoxy)acetic acid] as the molecule, how does the pKi (ROCK2; [1]) read?
Answer: Its pKi is 7.40.

Question: What about the pKi (ROCK1; Avg, 10 μM ATP) of the same molecule?
Answer: The pKi was 6.15.

Question: `Cc1ccc(CN2CC[C@@H](Nc3cccc4c[n+]([O-])ccc34)C2)cc1OCCO` [Compound 2.080, (R)-5-(1-(3-(2-hydroxyethoxy)-4-methylbenzyl)pyrrolidin-3-ylamino)isoquinoline 2-oxide] was tested. Which pKi (ROCK2; [1]) did it give?
Answer: The pKi was 6.90.

Question: And the pKi (ROCK1; Avg, 10 μM ATP)?
Answer: The pKi was 6.67.

Question: How did the pKi (ROCK2; [1]) turn out when `OCCn1ccc2cc(CN3CCC[C@H](Nc4ccc5[nH]ncc5c4)C3)ccc21` [Compound 1.269, (S)-2-(5-((3-(1H-indazol-5-ylamino)piperidin-1-yl)methyl)-1H-indol-1-yl)ethanol] was run?
Answer: The pKi was 7.64.

Question: What about the pKi (ROCK1; Avg, 10 μM ATP) of the same molecule?
Answer: Its pKi is 6.62.

Question: How did the pKi (ROCK2; [1]) turn out when `Cc1ccc(CN2CC[C@@H](Nc3cccc4cnccc34)C2)cc1OCC(=O)O` [Compound 2.073, (R)-2-(5-((3-(isoquinolin-5-ylamino)pyrrolidin-1-yl)methyl)-2-methylphenoxy)acetic acid] was run?
Answer: Its pKi is 8.38.

Question: And the pKi (ROCK2; average Ki, read-out: ROCK2 Ki)?
Answer: Its pKi is 8.38.

Question: What about the pKi (ROCK1; Avg, 10 μM ATP) of the same molecule?
Answer: The pKi was 7.90.

Question: What about the pKi (ROCK1; average Ki) of the same molecule?
Answer: Its pKi is 7.90.

Question: Which results are given for `NS(=O)(=O)c1ccc2nc(CN3CC[C@@H](Nc4cccc5cnccc45)C3)[nH]c2c1` [Compound 2.087, (R)-2-((3-(isoquinolin-5-ylamino)pyrrolidin-1-yl)methyl)-1H-benzo[d]imidazole-6-sulfonamide]?
Answer: pKi (ROCK2; [1]): 7.23; pKi (ROCK1; Avg, 10 μM ATP): 6.05

Question: Which results are given for `C[C@@H](O)COc1cccc(CN2CCC[C@@H](Nc3ccc4[nH]ncc4c3)C2)c1` [Compound 1.116, (R)-1-(3-(((R)-3-(1H-indazol-5-ylamino)piperidin-1-yl)methyl)phenoxy)propan-2-ol]?
Answer: pKi (ROCK2; [1]): 7.31; pKi (ROCK1; Avg, 10 μM ATP): 6.59

Question: With `CSc1ccc(CN2CCC[C@H](Nc3cccc4cnccc34)C2)cc1` [Compound 2.051, (S)-N-(1-(4-(methylthio)benzyl)piperidin-3-yl)isoquinolin-5-amine] as the molecule, how does the pKi (ROCK2; [1]) read?
Answer: Its pKi is 5.93.

Question: And the pKi (ROCK1; Avg, 10 μM ATP)?
Answer: Its pKi is 5.84.
